# Data taken from patent publication US20230144203A1 (SHANGHAI SENHUI MEDICINE CO., LTD., priority 2020, published 2023).
# Like-named read-outs stand apart in the source and are kept apart here.
# Columns and labels:
# [1] = Test Example 6 pharmacokinetic study in beagles; conditions: male, beagle, dog, iv, 0.5 mg/kg
# Description: The pharmacokinetic performance in beagles of the compounds of the present disclosure was studied and the pharmacokinetic profile thereof was evaluated.
# Male 6 beagles were divided into 2 groups of 3, purchased from Shanghai Medicilon Inc., and subjected to administration test.
# Plasma samples were stored in a refrigerator at −80° C. prior to testing. […] The plasma concentration of the test compounds in beagles after drug injection was determined: after administration, 25 μL of beagle plasma at various times after administration was taken, and added with 50 μL (100 ng/mL) of internal standard solution camptothecin (National Institutes for Drug Control) and 200 μL of acetonitrile. The mixture was vortexed for 5 min and centrifuged for 10 min (3700 rpm/min). 3 to 4 μL of the supernatant of the plasma sample was subjected to LC/MS assay (API4000 triple quadrupole tandem mass spectrometer (No. 2), Applied Biosystems, USA; Shimadzu, LC-30AD ultra high performance liquid chromatography system, Shimadzu, Japan.) The analysis was performed.
# MDA-MB-468 [2] = assay: Test Example 1 in vitro cytotoxic activity screening (CTG); type: cell-based; conditions: for IC50: Homo sapiens
# Description: (§1) The CTG is used for detecting the ATP content in the experiment, and the survival condition of the tumor cells is reflected. […] The killing effect of the toxin molecule was then assayed according to this condition. 1.2. Selection of cell lines
# (§2) According to the purpose of the experiment, two disease models of breast cancer and NSCLC were selected, and SKBR3 tumor cells (HER2+, ATCC, Cat #HTB-30), MDA-MB-468 (HER2-, ATCC, Cat #HTB-132) and A549 (human non-small cell lung cancer cells, ATCC, Cat #CCL-185) were selected for screening.
# (§3) 2) Cell plating: A549 cells were digested with trypsin, and the cells were terminated with the above medium, and 4.3×10^5, 7.2×10^5 and 11.5×10^5 cells were added to the medium to give a final volume of 26 mL. 180 μL of cell suspension was added to each well in columns 2 to 11 of a 96-well plate (coming, Cat #3903) to give cell densities of 3K, 5K and 8K per well. Wells in column 12 were filled with 200 μL of culture medium and the remaining wells were filled with PBS. The above operations were repeated on the SKBR3 and MDA-MB-468 cells. The sample was duplicated.
# (§4) 2 mM of stock solution (stock diluted 10-fold in DMSO) was prepared in column 1 of drug preparation plate 1, then 10-fold dilution in DMSO by gradient was performed in column 10, and the wells in column 11 were filled with DMSO. 95 μL of corresponding culture solution was added into each well from column 2 to column 11 of the drug preparation plate 2, 5 μL of solution was pipetted from column 2 to column 11 of drug preparation plate 1 to drug preparation plate 2, the solution was mixed well, 20 μL of solution was pipetted, added into the plated cells, and continuously cultured for 3 days and 5 days.
# (§5) 4) CTG assay (Cell Titer-Glo™, luminescent cell viability assay, Promega): the cell plates were removed on day 3 and day 5, and balanced to room temperature. 90 μL of CTG was added into each well and reacted at room temperature for 10 min in the dark. The absorption value was read using a microplate reader and IC50 was calculated.
# SKBR3 tumor cells = assay: as above; type: cell-based; conditions: for IC50: Homo sapiens, SK-BR-3
# Description: as §1, §2, §3, §4, §5
# A549 [3] = assay: as above; type: cell-based, human; conditions: for IC50: Homo sapiens
# Description: as §1, §2, §3, §4, §5
# MDA-MB-468 [4] = assay: Test Example 2 in vitro cytotoxic activity screening (CTG); type: cell-based; conditions: for IC50: Homo sapiens
# Description: (§6) The CTG is used for detecting the ATP content in the experiment, and the survival condition of the tumor cells is reflected.
# (§7) A549, SKBR3 and MDA-MB-468 were digested with trypsin, and each was resuspended in culture medium to a cell density of 2.2×10^4 cells/mL, and 135 μL of cell suspension was added to each well in columns 2 to 11 of a 96-well plate, and column 12 was set as blank control. The cells were incubated in an incubator for 24 h at 37° C. with 5% CO2.
# (§8) a) Stock solution preparation: the test compound and positive control drug were dissolved in DMSO to give a stock solution at a concentration of 5 mM.
# (§9) b) Drug preparation plate 1: stock solution in column 1 was initially diluted 40-fold, and 3-fold gradient dilutions were performed sequentially in column 2 to column 11. Column 12 was filled with DMSO.
# (§10) c) Drug preparation plate 2: 196 μL of the corresponding culture medium was added into columns 2 to 11, and 4 μL of culture medium was pipetted from column 3 to column 12 of drug preparation plate 1 to column 2 to column 11 of drug preparation plate
# (§11) 15 μL of culture medium was pipetted from the drug preparation plate 2 and added into the plated cells. The cells were continuously incubated in an incubator for 5 h at 37° C. with 5% CO2.
# as §5, with “2.4)” for “4)”, “assay):” for “assay, Promega):”, “removed” for “removed on day 3 and day 5,”, “75” for “90”
# SKBR3 = assay: as above; type: cell-based; conditions: for IC50: Homo sapiens
# Description: as §6, §7, §8, §9, §10, §11
# as §5, with “2.4)” for “4)”, “assay):” for “assay, Promega):”, “removed” for “removed on day 3 and day 5,”, “75” for “90”
# A549 [5] = assay: as above; type: cell-based; conditions: for IC50: Homo sapiens
# Description: as §6, §7, §8, §9, §10, §11
# as §5, with “2.4)” for “4)”, “assay):” for “assay, Promega):”, “removed” for “removed on day 3 and day 5,”, “75” for “90”
# [6] = MDA-MB-468, CTG, read-out: IC50
# [7] = SK-BR-3, SKBR3, CTG, incubated 5 h, read-out: IC50
structure (smiles),measurement,setting,value
C=C1C[C@@H]2CC[C@@]34C[C@H]5O[C@H]6[C@@H](O3)[C@H]3O[C@H](CC[C@@H]3O[C@H]6[C@H]5O4)CC(=O)C[C@@H]3[C@@H](OC)[C@@H](C[C@@H](CN)OC)O[C@H]3C[C@H]3O[C@@H](CC[C@@H]1O2)C[C@@H](C)C3=C [Compound D-1],AUC(0-t),[1]; in vivo,433 ng·h/mL
same,MRT,[1]; in vivo,41.1 h
same,Vd,[1]; in vivo,22 L/kg
same,clearance,[1]; in vivo,8.9 mL/min/kg
same,concentration at 5 min,[1]; in vivo,82.1 ng/mL
same,half-life,[1]; in vivo,29.3 h
same,IC50,MDA-MB-468 [2]; MDA-MB-468,0.183 nM
same,Maximum inhibition,"MDA-MB-468 [2]; MDA-MB-468, CTG",88.01%
same,IC50,SKBR3 tumor cells,0.205 nM
same,Maximum inhibition,"SKBR3 tumor cells; SKBR3, CTG",96.87%
same,Maximum inhibition,"A549 [3]; A549, CTG",81.34%
same,IC50,A549 [3]; A549,0.515 nM
C=C1C[C@@H]2CC[C@@]34C[C@H]5O[C@H]6[C@@H](O3)[C@H]3O[C@H](CC[C@@H]3O[C@H]6[C@H]5O4)CC(=O)C[C@@H]3[C@@H](OC)[C@@H](C[C@H](O)CNC(=O)[C@H](O)C4CC4)O[C@H]3C[C@H]3O[C@@H](CC[C@@H]1O2)C[C@@H](C)C3=C [Compound D-2],IC50,MDA-MB-468 [2]; [6],0.909 nM
same,IC50,"SKBR3 tumor cells; SKBR3, CTG, read-out: IC50",0.839 nM
same,IC50,"A549 [3]; A549, CTG, read-out: IC50",3.16 nM
C=C1C[C@@H]2CC[C@@]34C[C@H]5O[C@H]6[C@@H](O3)[C@H]3O[C@H](CC[C@@H]3O[C@H]6[C@H]5O4)CC(=O)C[C@@H]3[C@@H](OC)[C@@H](C[C@@H](CNC(=O)[C@H](O)C4CC4)OC)O[C@H]3C[C@H]3O[C@@H](CC[C@@H]1O2)C[C@@H](C)C3=C [Compound D-3],IC50,"MDA-MB-468 [4]; MDA-MB-468, 5 h",1.98 nM
same,Maximum inhibition,"MDA-MB-468 [4]; MDA-MB-468, CTG, incubated 5 h",90.94%
same,IC50,"SKBR3; SK-BR-3, 5 h",1.18 nM
same,Maximum inhibition,"SKBR3; SKBR3, CTG, incubated 5 h",96.36%
same,Maximum inhibition,"A549 [5]; A549, CTG, incubated 5 h",63.03%
same,IC50,"A549 [5]; A549, 5 h",2.17 nM
same,IC50,MDA-MB-468 [2]; MDA-MB-468,1.67 nM
same,IC50,SKBR3 tumor cells,1.36 nM
same,IC50,A549 [3]; A549,5.14 nM
C=C1C[C@@H]2CC[C@]34C[C@@H]5O[C@H]6[C@@H](O3)[C@@H]3O[C@H](CC[C@@H]3O[C@@H]6[C@H]5O4)CC(=O)C[C@@H]3[C@H](OC)[C@@H](C[C@H](O)CNC(=O)CO)O[C@H]3C[C@H]3O[C@@H](CC[C@@H]1O2)C[C@H](C)C3=C [Compound D-4],IC50,"MDA-MB-468 [4]; MDA-MB-468, CTG, incubated 5 h, read-out: IC50",1.88 nM
same,Maximum inhibition,"MDA-MB-468 [4]; MDA-MB-468, CTG, incubated 5 h",89.43%
same,IC50,SKBR3; [7],1.09 nM
same,Maximum inhibition,"SKBR3; SKBR3, CTG, incubated 5 h",96.85%
same,Maximum inhibition,"A549 [5]; A549, CTG, incubated 5 h",62.09%
same,IC50,"A549 [5]; A549, CTG, incubated 5 h, read-out: IC50",3.08 nM
same,IC50,MDA-MB-468 [2]; [6],1.78 nM
same,IC50,"SKBR3 tumor cells; SKBR3, CTG, read-out: IC50",1.3 nM
same,IC50,"A549 [3]; A549, CTG, read-out: IC50",5.61 nM
C=C1C[C@@H]2CC[C@@]34C[C@H]5O[C@H]6[C@@H](O3)[C@H]3O[C@H](CC[C@@H]3O[C@H]6[C@H]5O4)CC(=O)C[C@@H]3[C@@H](OC)[C@@H](C[C@H](O)CNC(=O)C4(O)CC4)O[C@H]3C[C@H]3O[C@@H](CC[C@@H]1O2)C[C@@H](C)C3=C [Compound D-5],IC50,"SKBR3 tumor cells; SKBR3, CTG, read-out: IC50",0.383 nM
same,IC50,"A549 [3]; A549, CTG, read-out: IC50",4.02 nM
C=C1C[C@@H]2CC[C@@]34C[C@H]5O[C@H]6[C@@H](O3)[C@H]3O[C@H](CC[C@@H]3O[C@H]6[C@H]5O4)CC(=O)C[C@@H]3[C@@H](OC)[C@@H](C[C@H](O)COC(=O)[C@H](O)C4CC4)O[C@H]3C[C@H]3O[C@@H](CC[C@@H]1O2)C[C@@H](C)C3=C [Compound D-6],IC50,MDA-MB-468 [2]; [6],0.996 nM
same,IC50,"SKBR3 tumor cells; SKBR3, CTG, read-out: IC50",0.294 nM
same,IC50,"A549 [3]; A549, CTG, read-out: IC50",1.85 nM
C=C1C[C@@H]2CC[C@@]34C[C@H]5O[C@H]6[C@@H](O3)[C@H]3O[C@H](CC[C@@H]3O[C@H]6[C@H]5O4)CC(=O)C[C@@H]3[C@@H](OC)[C@@H](C[C@H](O)COC(=O)C4(O)CC4)O[C@H]3C[C@H]3O[C@@H](CC[C@@H]1O2)C[C@@H](C)C3=C [Compound D-7],IC50,MDA-MB-468 [2]; [6],0.903 nM
same,IC50,"SKBR3 tumor cells; SKBR3, CTG, read-out: IC50",0.481 nM
same,IC50,"A549 [3]; A549, CTG, read-out: IC50",1.78 nM
C=C1C[C@@H]2CC[C@@]34C[C@H]5O[C@H]6[C@@H](O3)[C@H]3O[C@H](CC[C@@H]3O[C@H]6[C@H]5O4)CC(=O)C[C@@H]3[C@@H](OC)[C@@H](C[C@H](O)COC(=O)c4ccc(CO)cc4)O[C@H]3C[C@H]3O[C@@H](CC[C@@H]1O2)C[C@@H](C)C3=C [Compound D-8],IC50,MDA-MB-468 [2]; [6],0.843 nM
same,IC50,"SKBR3 tumor cells; SKBR3, CTG, read-out: IC50",0.33 nM
same,IC50,"A549 [3]; A549, CTG, read-out: IC50",0.811 nM
"C=C1C[C@@H]2CC[C@@]34C[C@H]5O[C@H]6[C@@H](O3)[C@H]3O[C@H](CC[C@@H]3O[C@H]6[C@H]5O4)CC(=O)C[C@@H]3[C@@H](OC)[C@@H](C[C@H](O)CNC)O[C@H]3C[C@H]3O[C@@H](CC[C@@H]1O2)C[C@@H](C)C3=C [Compound E-305, reference compound]",IC50,"MDA-MB-468 [4]; MDA-MB-468, 5 h",1.17 nM
same,Maximum inhibition,"MDA-MB-468 [4]; MDA-MB-468, CTG, incubated 5 h",88.53%
same,IC50,SKBR3; [7],0.571 nM
same,Maximum inhibition,"SKBR3; SKBR3, CTG, incubated 5 h",96.42%
same,Maximum inhibition,"A549 [5]; A549, CTG, incubated 5 h",61.27%
same,IC50,"A549 [5]; A549, 5 h",2.1 nM
"C=C1C[C@@H]2CC[C@@]34C[C@H]5O[C@H]6[C@@H](O3)[C@H]3O[C@H](CC[C@@H]3O[C@H]6[C@H]5O4)CC(=O)C[C@@H]3[C@@H](OC)[C@@H](C[C@H](O)CN)O[C@H]3C[C@H]3O[C@@H](CC[C@@H]1O2)C[C@@H](C)C3=C [Eribulin, eribulin, reference compound]",concentration at 5 min,[1],217 ng/mL
same,Maximum inhibition,"MDA-MB-468 [2]; MDA-MB-468, CTG",87.47%
same,Maximum inhibition,"SKBR3 tumor cells; SKBR3, CTG",94.90%
same,Maximum inhibition,"A549 [3]; A549, CTG",81.50%
